The values that follow come from patent US11970494B2, “6-heteroaryloxy benzimidazoles and azabenzimidazoles as JAK2 inhibitors” (Ajax Therapeutics, Inc., priority 2021, dated 2024).

For orientation: Papp A→B means the apparent permeability from the apical to the basolateral side of a cell layer. A higher Papp A→B goes with ready permeation.

This data set can be described thus: Caco2 Permeability Assay. The class given is in vitro ADME. Particulars: human; for efflux ratio at 2 h, 5 μM: pH 7.4, Caco-2, 5 μM, read-out: Efflux Ratio (ER); for Papp A→B at 2 h, 5 μM: pH 7.4, Caco-2, apical to basolateral. As for the experimental part:
Preparation of Caco-2 Cells: 50 μL and 25 mL of cell culture medium are added to each well of a Transwell® insert and reservoir, respectively. Then, the HTS Transwell® plates are incubated at 37° C., 5% CO2 for 1 hour before cell seeding. Caco-2 cell cells are diluted to 6.86×10^5 cells/mL with culture medium, and 50 μL of cell suspension are dispensed into the filter well of the 96-well HTS Transwell® plate. Cells are cultivated for 14-18 days in a cell culture incubator at 37° C., 5% CO2, 95% relative humidity. Cell culture medium is replaced every other day, beginning no later than 24 hours after initial plating.
Preparation of Stock Solutions: 10 mM stock solutions of test compounds are prepared in DMSO. The stock solutions of positive controls are prepared in DMSO at the concentration of 10 mM. Digoxin and propranolol are used as control compounds in this assay.
Assessment of Cell Monolayer Integrity: Medium is removed from the reservoir and each Transwell® insert and is replaced with prewarmed fresh culture medium. Transepithelial electrical resistance (TEER) across the monolayer is measured using Millicell Epithelial Volt-Ohm measuring system (Millipore, USA). The Plate is returned to the incubator once the measurement is done. The TEER value is calculated according to the following equation: TEER measurement (ohms)×Area of membrane (cm^2)=TEER value (ohm⋅cm^2). A TEER value greater than 230 ohm⋅cm^2 indicates a well-qualified Caco-2 monolayer.
Assay Procedure: The Caco-2 plate is removed from the incubator and washed twice with pre-warmed HBSS (10 mM HEPES, pH 7.4), and then incubated at 37° C. for 30 minutes. The stock solutions of control compounds are diluted in DMSO to get 1 mM solutions and then diluted with HBSS (10 mM HEPES, pH 7.4) to get 5 μM working solutions. The stock solutions of the test compounds are diluted in DMSO to get 1 mM solutions and then diluted with HBSS (10 mM HEPES and 4% BSA, pH 7.4) to get 5 μM working solutions. The final concentration of DMSO in the incubation system is 0.5%. To determine the rate of drug transport in the apical to basolateral direction. 75 μL of 5 μM working solutions of test compounds are added to the Transwell® insert (apical compartment) and the wells in the receiver plate (basolateral compartment) are filled with 235 μL of HBSS (10 mM HEPES and 4% BSA, pH 7.4). To determine the rate of drug transport in the basolateral to apical direction, 235 μL of 5 μM working solutions of test compounds are added to the receiver plate wells (basolateral compartment) and then the Transwell® inserts (apical compartment) are filled with 75 μL of HBSS (10 mM HEPES and 4% BSA, pH 7.4). Time 0 samples are prepared by transferring 50 μL of 5 μM working solution to wells of the 96-deepwell plate, followed by the addition of 200 μL cold methanol containing appropriate internal standards (IS). The plates are incubated at 37° C. for 2 hours. At the end of the incubation, 50 μL samples from donor sides (apical compartment for Ap→*Bl flux, and basolateral compartment for Bl→Ap) and receiver sides (basolateral compartment for Ap→Bl flux, and apical compartment for Bl→Ap) are transferred to wells of a new 96-well plate, followed by the addition of 4 volume of cold acetonitrile or methanol containing appropriate internal standards (IS). Samples are vortexed for 5 minutes and then centrifuged at 3,220 g for 40 minutes. An aliquot of 100 μL of the supernatant is mixed with an appropriate volume of ultra-pure water before LC-MS/MS analysis. To determine the Lucifer Yellow leakage after 2 hour transport period, stock solution of Lucifer yellow is prepared in ultra-pure water and diluted with HBSS (10 mM HEPES, pH 7.4) to reach the final concentration of 100 μM. 100 μL of the Lucifer yellow solution is added to each Transwell® insert (apical compartment), followed by filling the wells in the receiver plate (basolateral compartment) with 300 μL of HBSS (10 mM HEPES, pH 7.4). […]
A general note: Caco-2 monolayers are a common model of the intestinal barrier.

With `COC(=O)Nc1cc(Oc2cnc3nc(Nc4cc(C(F)(F)F)cn(C)c4=O)n(C)c3c2C#N)ccn1` [Example I-3, Methyl (4-((7-cyano-1-methyl-2-((1-methyl-2-oxo-5-(trifluoromethyl)-1,2-dihydropyridin-3-yl)amino)-1H-imidazo[4,5-b]pyridin-6-yl)oxy)pyridin-2-yl)carbamate], the efflux ratio at 2 h, 5 μM was at most 2 and the Papp A→B at 2 h, 5 μM is 12 ×10⁻⁶ cm/s.
For the molecule `CN(C)C(=O)Nc1cc(Oc2cnc3nc(Nc4cc(C(F)(F)F)cn(C)c4=O)n(C)c3c2C#N)ccn1` [Example I-4, 3-(4-((7-cyano-1-methyl-2-((1-methyl-2-oxo-5-(trifluoromethyl)-1,2-dihydropyridin-3-yl)amino)-1H-imidazo[4,5-b]pyridin-6-yl)oxy)pyridin-2-yl)-1,1-dimethylurea], the efflux ratio at 2 h, 5 μM lay within 2 to 5 and the Papp A→B at 2 h, 5 μM is 7 ×10⁻⁶ cm/s.
Regarding `Cn1cc(C(F)(F)F)cc(Nc2nc3ncc(Oc4ccnc(NC(=O)N5CCC5)c4)c(C#N)c3n2C)c1=O` [Example I-7, N-(4-((7-cyano-1-methyl-2-((1-methyl-2-oxo-5-(trifluoromethyl)-1,2-dihydropyridin-3-yl)amino)-1H-imidazo[4,5-b]pyridin-6-yl)oxy)pyridin-2-yl)azetidine-1-carboxamide], the efflux ratio at 2 h, 5 μM fell in the range of 2 to 5 and the apical-to-basolateral permeability (Papp A→B) at 2 h, 5 μM stood at 6 ×10⁻⁶ cm/s.
`CO[C@H]1CCN(C(=O)Nc2cc(Oc3cnc4nc(Nc5cc(C(F)(F)F)cn(C)c5=O)n(C)c4c3C#N)ccn2)C1` [Example I-14, (S)-N-(4-((7-cyano-1-methyl-2-((1-methyl-2-oxo-5-(trifluoromethyl)-1,2-dihydropyridin-3-yl)amino)-1H-imidazo[4,5-b]pyridin-6-yl)oxy)pyridin-2-yl)-3-methoxypyrrolidine-1-carboxamide]: the efflux ratio at 2 h, 5 μM was in the range of 2 to 5 and the apical-to-basolateral permeability (Papp A→B) at 2 h, 5 μM came to 4 ×10⁻⁶ cm/s.
For `Cn1cc(C(F)(F)F)cc(Nc2nc3ncc(Oc4ccnc(NC(=O)OCCN5CCOCC5)c4)c(C#N)c3n2C)c1=O` [Example I-15, 2-Morpholinoethyl(4-((7-cyano-1-methyl-2-((1-methyl-2-oxo-5-(trifluoromethyl)-1,2-dihydropyridin-3-yl)amino)-1H-imidazo[4,5-b]pyridin-6-yl)oxy)pyridin-2-yl)carbamate], in that order: 2 to 5 and 4 ×10⁻⁶ cm/s.
In the case of `Cn1cc(C(F)(F)F)cc(Nc2nc3ncc(Oc4ccnc(NC(=O)O[C@@H]5CCOC5)c4)c(C#N)c3n2C)c1=O` [Example I-18, (R)-Tetrahydrofuran-3-yl(4-((7-cyano-1-methyl-2-((1-methyl-2-oxo-5-(trifluoromethyl)-1,2-dihydropyridin-3-yl)amino)-1H-imidazo[4,5-b]pyridin-6-yl)oxy)pyridin-2-yl)carbamate], the efflux ratio at 2 h, 5 μM lay within 2 to 5 and the apical-to-basolateral permeability (Papp A→B) at 2 h, 5 μM turned out to be 2 ×10⁻⁶ cm/s.
In the same order, the values of `COC1CN(C(=O)Nc2cc(Oc3cnc4nc(Nc5cc6n(n5)CCCC6(F)F)n(C)c4c3C#N)ccn2)C1` [Example I-26, N-(4-((7-cyano-2-((4,4-difluoro-4,5,6,7-tetrahydropyrazolo[1,5-a]pyridin-2-yl)amino)-1-methyl-1H-imidazo[4,5-b]pyridin-6-yl)oxy)pyridin-2-yl)-3-methoxyazetidine-1-carboxamide] are 5 to 10 and 2 ×10⁻⁶ cm/s.
For `Cn1c(Nc2cc3n(n2)CCOC3(C)C)nc2ncc(Oc3ccnc(NC(=O)O[C@@H]4CCOC4)c3)c(C#N)c21` [Example I-48, (R)-Tetrahydrofuran-3-yl(4-((7-cyano-2-((4,4-dimethyl-6,7-dihydro-4H-pyrazolo[5,1-c][1,4]oxazin-2-yl)amino)-1-methyl-1H-imidazo[4,5-b]pyridin-6-yl)oxy)pyridin-2-yl)carbamate], in that order: 5 to 10 and 2 ×10⁻⁶ cm/s.
On to `CN(C)C(=O)Nc1cc(Oc2cnc3nc(Nc4cc5n(n4)CCC54CCC4)n(C)c3c2C#N)ccn1` [Example I-56, 3-(4-((7-cyano-2-((5′,6′-dihydrospiro[cyclobutane-1,4′-pyrrolo[1,2-b]pyrazol]-2′-yl)amino)-1-methyl-1H-imidazo[4,5-b]pyridin-6-yl)oxy)pyridin-2-yl)-1,1-dimethylurea], for which the efflux ratio at 2 h, 5 μM is at most 2 and the apical-to-basolateral permeability (Papp A→B) at 2 h, 5 μM amounted to 5 ×10⁻⁶ cm/s.
Regarding `COC(=O)Nc1cc(Oc2cnc3nc(Nc4cc5n(n4)CCC54CCC4)n(C)c3c2C#N)ccn1` [Example I-57, methyl(4-((7-cyano-2-((5′,6′-dihydrospiro[cyclobutane-1,4′-pyrrolo[1,2-b]pyrazol]-2′-yl)amino)-1-methyl-1H-imidazo[4,5-b]pyridin-6-yl)oxy)pyridin-2-yl)carbamate], the efflux ratio at 2 h, 5 μM was at most 2 and the apical-to-basolateral permeability (Papp A→B) at 2 h, 5 μM was found to be 5 ×10⁻⁶ cm/s.
For the molecule `CO[C@@H]1CCN(C(=O)Nc2cc(Oc3cnc4nc(Nc5cc6n(n5)CCC65CCC5)n(C)c4c3C#N)ccn2)C1` [Example I-60, (R)-N-(4-((7-cyano-2-((5′,6′-dihydrospiro[cyclobutane-1,4′-pyrrolo[1,2-b]pyrazol]-2′-yl)amino)-1-methyl-1H-imidazo[4,5-b]pyridin-6-yl)oxy)pyridin-2-yl)-3-methoxypyrrolidine-1-carboxamide], the efflux ratio at 2 h, 5 μM was at most 2 and the Papp A→B at 2 h, 5 μM was 6 ×10⁻⁶ cm/s.
For `COC1CN(C(=O)Nc2cc(Oc3cnc4nc(Nc5cc6n(n5)CCC65CCC5)n(C)c4c3C#N)ccn2)C1` [Example I-61, N-(4-((7-cyano-2-((5′,6′-dihydrospiro[cyclobutane-1,4′-pyrrolo[1,2-b]pyrazol]-2′-yl)amino)-1-methyl-1H-imidazo[4,5-b]pyridin-6-yl)oxy)pyridin-2-yl)-3-methoxyazetidine carboxamide], in that order: 2 to 5 and 3 ×10⁻⁶ cm/s.
For the molecule `COCCOC(=O)Nc1cc(Oc2cnc3nc(Nc4cc5n(n4)CCC54CCC4)n(C)c3c2C#N)ccn1` [Example I-62, 2-methoxyethyl(4-((7-cyano-2-((5′,6′-dihydrospiro[cyclobutane-1,4′-pyrrolo[1,2-b]pyrazol]-2′-yl)amino)-1-methyl-1H-imidazo[4,5-b]pyridin-6-yl)oxy)pyridin-2-yl)carbamate], the efflux ratio at 2 h, 5 μM was at most 2 and the apparent permeability from apical to basolateral (Papp A→B) at 2 h, 5 μM amounted to 5 ×10⁻⁶ cm/s.
As to `COCC(=O)Nc1cc(Oc2cnc3nc(Nc4cc(C(F)(F)F)cn(C)c4=O)n(C)c3c2Cl)ccn1` [Example I-75, N-(4-((7-chloro-1-methyl-2-((1-methyl-2-oxo-5-(trifluoromethyl)-1,2-dihydropyridin-3-yl)amino)-1H-imidazo[4,5-b]pyridin-6-yl)oxy)pyridin-2-yl)-2-methoxyacetamide], the efflux ratio at 2 h, 5 μM was at most 2 and the Papp A→B at 2 h, 5 μM was 12 ×10⁻⁶ cm/s.
Regarding `COCC(=O)Nc1cc(Oc2cnc3nc(Nc4cc(C(F)(F)F)cn(C)c4=O)n(C)c3c2C#N)ccn1` [Example I-79, N-(4-((7-cyano-1-methyl-2-((1-methyl-2-oxo-5-(trifluoromethyl)-1,2-dihydropyridin-3-yl)amino)-1H-imidazo[4,5-b]pyridin-6-yl)oxy)pyridin-2-yl)-2-methoxyacetamide], the efflux ratio at 2 h, 5 μM is at most 2 and the Papp A→B at 2 h, 5 μM was determined as 15 ×10⁻⁶ cm/s.
